# From US10654834B2 (Venenum Biodesign, LLC, priority 2016, dated 2020)
# Columns and labels:
# GLP-1 = GLP-1 measurement at end of OGTT in C57BL/6NTac mice; assay type: in vivo, mouse; settings: for blood GLP-1 level after OGTT, combination with sitagliptin: 30 mg/kg + sitagliptin 3 mg/kg p.o.
# Procedure: Immediately after the last blood glucose measurement (i.e., 120 minutes after the glucose administration), the blood was collected via cardiac puncture for GLP-1 measurements. The collected blood (200-250 μL) was placed in an EDTA K^2+ tube containing 5 μL of 40 mg/mL aprotinin (Sigma A1153) and 1 μL of 10 mM sitagliptin (Sigma S8576) and plasma was separated by centrifugation. Plasma samples were stored at −20° C. until analysis. The active form of GLP-1 [GLP-1 (7-36) amide] was analyzed using Meso Scale Discovery System according to the manufacturer's directions (item number K150HYC). […] A synergy between the Compound 56 and sitagliptin is also observed (FIG. 3). Values of p<0.01 and <0.001 are considered statistically significant.
# FIG. 4 depicts blood glucose measurements at 15, 30, 60, 90, and 120 min following glucose gavage. FIG. 5 depicts AUC data after glucose gavage. FIG. 6 depicts the blood GLP-1 levels comparing mice treated with a DPP-4 inhibitor (i.e., sitagliptin) to mice treated with Compound 268+a DPP-4 inhibitor (i.e., sitagliptin).
# blood glucose = assay: Oral glucose tolerance test (OGTT) in C57BL/6NTac mice; assay type: in vivo, mouse
# Procedure: Oral Glucose Tolerance Test (OGTT)
# Compounds of the present invention were tested to determine if they could decrease blood glucose levels in mice after glucose administration (i.e., effective in glycemic control). In this study, we orally administered a standard dose of glucose to mice and measured glucose levels in circulating blood at several defined time points after the glucose administration.
# 8-12 week old male C57BL/6NTac (Taconic) mice were fasted overnight. On the morning of the experiment, the mice were weighed and divided into experimental groups (n=8) assigned by randomizing mice based on baseline blood glucose levels. Following group assignments, mice were dosed with 3 mg/kg sitagliptin or PBS as vehicle control via oral gavage (5 mL/kg) exactly 1 hour before oral gavage dosing of compound (30 mg/kg) or vehicle (0.5% carboxymethylcellulose (medium viscosity)+0.25% Tween −80) at a volume of 10 mL/kg. Time zero blood glucose levels were measured 4 hours after compound or vehicle dosing. Immediately following time zero blood glucose level measurement, mice were gavaged with 2 g/kg of glucose. […] AUC were calculated and data analyzed using one-way ANOVA followed by Dunnett's post-test in GraphPad Prism (FIG. 2). […]
# mouse TGR5 receptor = target: T1, mouse TGR5 receptor (Mus musculus, UniProt Q80SS6); assay: Mouse TGR5 luminescent cAMP production assay (HEK293-EBNA cells, DiscoveRx cAMP XS+ kit); assay type: cell-based; settings: HEK293-EBNA cells overexpressing mouse TGR5, luminescent cAMP assay; read-out: Mouse TGR5 Lum. cAMP Activity (EC50)
# T1 construct: host or cells: HEK293-EBNA (293 c18, ATCC CRL10852)
# T1 sequence (Q80SS6 1-329): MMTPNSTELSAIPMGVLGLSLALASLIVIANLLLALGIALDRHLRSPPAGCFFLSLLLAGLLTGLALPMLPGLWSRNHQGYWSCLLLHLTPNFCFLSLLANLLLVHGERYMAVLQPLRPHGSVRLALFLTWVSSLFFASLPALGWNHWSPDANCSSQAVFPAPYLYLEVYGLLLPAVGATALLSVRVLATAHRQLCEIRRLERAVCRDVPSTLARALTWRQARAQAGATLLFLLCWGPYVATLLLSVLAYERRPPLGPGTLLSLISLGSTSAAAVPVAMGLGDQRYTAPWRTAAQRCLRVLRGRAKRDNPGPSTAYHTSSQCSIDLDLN
# In short: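 HEK293-EBNA cells stably expressing mouse TGR5, resuspended in serum-free DMEM with 500 μM IBMX, were premixed 20 min with cAMP antibody, then exposed to half-log compound dilutions for 1 h at room temperature. cAMP was read by luminescent enzyme-fragment complementation (cAMP XS+) after overnight incubation; EC50 derived.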
SMILES,EC50 (mouse TGR5 receptor) [nM],also measured
"N#Cc1ccc(CCNC(=O)[C@@H]2CCCN2c2cc(N3CCC(CCC(=O)NCCS(=O)(=O)O)CC3)nc(C(F)(F)F)n2)cc1 [Compound 56, (S)-2-(3-(1-(6-(2-((4-cyanophenethyl)carbamoyl)pyrrolidin-1-yl)-2-(trifluoromethyl)pyrimidin-4-yl)piperidin-4-yl)propanamido)ethanesulfonic acid]",,"blood GLP-1 level after OGTT, combination with sitagliptin (GLP-1): synergy; blood GLP-1 level after OGTT (GLP-1; 30 mg/kg p.o., 120 min after glucose): increased GLP-1 level; blood glucose levels in OGTT (blood glucose; 30 mg/kg p.o. 4 h before 2 g/kg glucose, 15-120 min): effectively reduced blood glucose levels throughout the time period measured"
"N#Cc1ccc(CCNC(=O)[C@@H]2CCN2c2cc(N3CCC(CCO)CC3)nc(C(F)(F)F)n2)cc1 [Compound 223, (S)-N-(4-cyanophenethyl)-1-(6-(4-(2-hydroxyethyl)piperidin-1-yl)-2-(trifluoromethyl)pyrimidin-4-yl)azetidine-2-carboxamide]",< 100,
COCC1CCN(c2cc(N3CCC[C@H]3C(=O)NCCc3ccc(C#N)cc3)nc(C(F)(F)F)n2)CC1 [Compound 24],< 100,
"N#Cc1ccc(CCNC(=O)[C@@H]2CCCN2c2cc(N3CCC(CCN)CC3)nc(C(F)(F)F)n2)cc1 [Compound 50, (S)-1-(6-(4-(2-aminoethyl)piperidin-1-yl)-2-(trifluoromethyl)pyrimidin-4-yl)-N-(4-cyanophenethyl)pyrrolidine-2-carboxamide]",< 100,
"N#Cc1ccc(CCNC(=O)[C@@H]2CCCN(c3cc(N4CCC(CO)CC4)nc(C(F)(F)F)n3)C2)cc1 [Compound 308, (R)—N-(4-cyanophenethyl)-1-(6-(4-(hydroxymethyl)piperidin-1-yl)-2-(trifluoromethyl)pyrimidin-4-yl)piperidine-3-carboxamide]",< 100,
"N#Cc1ccc(CCNC(=O)[C@@H]2CCN2c2cc(N3CCC(CCNC(=O)NCCC(=O)O)CC3)nc(C(F)(F)F)n2)cc1 [Compound 268, (S)-3-(3-(2-(1-(6-(2-((4-cyanophenethyl)carbamoyl)azetidin-1-yl)-2-(trifluoromethyl)pyrimidin-4-yl)piperidin-4-yl)ethyl)ureido)propanoic acid]",,"blood GLP-1 level after OGTT, combination with sitagliptin (GLP-1): induced GLP-1 production; blood glucose levels in OGTT, combination with sitagliptin (blood glucose; 30 mg/kg + sitagliptin 3 mg/kg p.o. versus sitagliptin alone): effectively reduced blood glucose levels throughout the time period measured"
N#Cc1ccc(CCNC(=O)[C@@H]2CCCN2c2cc(N3CCC(CCO)CC3)nc(C(F)(F)F)n2)cc1 [Compound 22],< 100,
"N#Cc1ccc(CCNC(=O)[C@@H]2CCN2c2cc(N3CCC(CO)CC3)nc(C(F)(F)F)n2)cc1 [Compound 219, (S)—N-(4-cyanophenethyl)-1-(6-(4-(hydroxymethyl)piperidin-1-yl)-2-(trifluoromethyl)pyrimidin-4-yl)azetidine-2-carboxamide]",< 100,
